From patent US7767796B2, “N4 chelator conjugates” (GE Healthcare Limited, priority 2004, dated 2010) come the findings set out here.

Data set [1] can be described thus: Measurement of lipophilicity (LogP): octanol-water partition coefficient of the 99mTc complexes. Format: physicochemical. The note with it: for Log P (octanol/50 mM phosphate buffer): 99mTc complex of the compound, 1-octanol / 50 mM phosphate buffer pH 7.4, room temperature; for Log P: 99mTc complex, repeated in the biodistribution table.
Experimental: The tube was vortexed at room temperature for 1 min and then was centrifuged at high speed for 60 min. 0.1 ml samples of both phases were pipetted into other test tubes with adequate care to avoid cross contamination between the phases, and were counted in a Wallac Wizzard gamma-counter. The measurement was repeated three times.
The partition coefficient, P, was calculated as follows: P=(cpm in octanol−(cpm background)/( (cpm in water−(cpm background).
Usually the final partition coefficient value was expressed as log P.
Data set [2] is described as follows: Biodistribution of the 99mTc complexes in normal male Wistar rats. Format: in vivo. The note with it: 99mTc complex, rat; for Clearance (% ID) HBS 120 min / Blood 120 min / Heart 120 min / Liver 120 min / Lung 120 min / Muscle 120 min / Clearance (% ID) Urine (K, B, U) 120 min: 120 min p.i.; for Blood 5 min: 5 min p.i.; for Heart/blood / Heart/liver / Heart/lung / Heart/muscle: ratio of uptake, 120 min values. On the procedure:
The ^99mTc complexes of Compounds 4, 5 and 7 were prepared as described in Example 8. […] Animals were anaesthetised with Halothane (6% in oxygen), injected with 0.1 ml (500 MBq/ml) Test Item, sacrificed, dissected and the samples assayed for radioactivity.

As to `CCCCc1nc(Cl)c(CNC(=O)C(CC(C)C)NC(=O)CC(CNCCN)CNCCN)n1Cc1ccc(-c2ccccc2-c2nn[nH]n2)cc1` (centres unmarked) (99mTc complex, metal not drawn) [Compound 4], in data set [1], the “Log P (octanol/50 mM phosphate buffer)” value was “+0.6”; the Log P – broadly, the decadic logarithm of the partition coefficient of the neutral form, usually between octanol and water – is on record as 0.6. Further, in data set [2], the “Clearance (% ID) HBS 120 min” value came out at 74.65 % ID, the “Blood 5 min” value was 3.26 % ID/G, the “Blood 120 min” value is 0.91 % ID/G and the “Heart 120 min” value was determined as 0.44 % ID/G. In addition, in data set [2], the “Liver 120 min” value came out at 6.52 % ID/G, the “Lung 120 min” value was 1.84 % ID/G, the “Muscle 120 min” value is recorded as 0.34 % ID/G and the Heart/blood amounted to 0.49. Moreover, in data set [2], the Heart/liver came out at 0.07; the Heart/lung is 0.24; the Heart/muscle is given as 1.3; the “Clearance (% ID) Urine (K, B, U) 120 min” value is 21.13 % ID.

Consider `CCCCc1nc(Cl)c(CNC(=O)C(CC(C)C)NC(=O)COCC(=O)NCCOCCOCCOCCNC(=O)CC(CNCCN)CNCCN)n1Cc1ccc(-c2ccccc2-c2nn[nH]n2)cc1` (centres unmarked) (99mTc complex, metal not drawn) [Compound 5], for which, in data set [1], the “Log P (octanol/50 mM phosphate buffer)” value is −0.1 and the “Log P” value is reported as −0.1. Moreover, in data set [2], the “Clearance (% ID) HBS 120 min” value is 54.21 % ID, the “Blood 5 min” value came to 1.5 % ID/G, the “Blood 120 min” value came to 0.26 % ID/G and the “Heart 120 min” value is given as 0.13 % ID/G. In data set [2], the “Liver 120 min” value worked out at 3.53 % ID/G, the “Lung 120 min” value was determined as 0.6 % ID/G, the “Muscle 120 min” value amounted to 0.9 % ID/G and the Heart/blood is reported as 0.5. Moreover, in data set [2], the Heart/liver is given as 0.04; the Heart/lung was found to be 0.21; the Heart/muscle is listed as 1.44; the “Clearance (% ID) Urine (K, B, U) 120 min” value is on record as 14.45 % ID.

Turning to `CC[C@H](C)[C@H](NC(=O)[C@@H]1CCCN1C(=O)[C@H](Cc1cnc[nH]1)NC(=O)[C@@H](NC(=O)[C@H](Cc1ccc(O)cc1)NC(=O)[C@@H](NC(=O)[C@H](CCCNC(=N)N)NC(=O)NCCCCCCC(CNCCN)CNCCN)C(C)C)[C@@H](C)CC)C(=O)O` (99mTc complex, metal not drawn) [Compound 7], in data set [1], the “Log P (octanol/50 mM phosphate buffer)” value is reported as less than −2 and the “Log P” value is listed as less than −2. Further, in data set [2], the “Clearance (% ID) HBS 120 min” value was 19.63 % ID, the “Blood 5 min” value stood at 0.84 % ID/G, the “Blood 120 min” value was determined as 0.05 % ID/G and the “Heart 120 min” value is reported as 0.1 % ID/G. Moreover, in data set [2], the “Liver 120 min” value amounted to 1.55 % ID/G, the “Lung 120 min” value is 0.4 % ID/G, the “Muscle 120 min” value was 0.1 % ID/G and the Heart/blood turned out to be 2. In data set [2], the Heart/liver came out at 0.06; the Heart/lung is 0.25; the Heart/muscle came out at 1; the “Clearance (% ID) Urine (K, B, U) 120 min” value turned out to be 64.26 % ID.

`NCCNCC(CNCCN)CC(=O)NCc1ccccc1` [Compound 3]: the “Log P (octanol/50 mM phosphate buffer)” value in data set [1] is less than −2.

In the case of `NCCNCC(CCCCCCNC(=O)c1ccccc1)CNCCN` [Compound 6], in data set [1], the “Log P (octanol/50 mM phosphate buffer)” value is −1.8.
